Reference: patent US20150376647A1, “DESIGNER PH SENSOR AS UNIVERSAL TRANSGENE CONTROLLER” (ETH ZURICH, priority 2013, published 2015)

Tested on: protein kinase A (PKA)
Test: PKA inhibition of pH sensor signaling in pDA62/pCK53-cotransfected HEK-293T
Assay type: cell-based, human
Settings: 10 μM for 1 h, 2 h at pH 6.9, then pH 7.6, SEAP after 24 h
Experimental: PKA inhibition: 1.5×10^5 cells were pretreated with 10 μM H-89 (Sigma, cat. no. B1472) for 1 h, incubated for 2 h in cell culture medium adjusted to pH 6.9 and maintained for 24 h in cell culture medium adjusted to pH 7.6 before SEAP levels were assessed in the cell culture supernatant
SEAP: Production of human placental secreted alkaline phosphatase was quantified in cell culture supernatants (Schlatter S. et al., Gene 282, 19-31 (2002)) and mouse serum (Weber et. al., Nat. Biotech., 22, 1440-1444 (2004)) as described before.

Compound: O=S(=O)(NCCNC/C=C/c1ccc(Br)cc1)c1cccc2cnccc12 [H-89]
- TDAG8-to-PCRE signaling (SEAP levels): interrupted
